Measured values taken from patent publication US12577232B2, “N-heterocycle substituted tryptamine derivatives and methods of using” (ENVERIC B[…] INC., priority 2024, dated 2026).
Values joined by “and” are separate entries in the source; they are usually repeats but may differ in a detail not shown here. Equal entries are not always repeated.

Columns and labels:
5-HT2A receptor = target: T1, 5-HT2A receptor (Homo sapiens, UniProt P28223); experiment: 5-HT2A receptor radioligand competition assay (SPA, [3H]ketanserin); type: binding; details: 1 nM [3H]ketanserin; membranes containing 5-HT2A; read-out: 5-HT2A, Ki
T1 construct: purchased PerkinElmer ES-313-M400UA
Experimental: Competition assays were performed as for 5-HT1A assays with the following differences. […] Determination of non-specific binding was carried out in the presence of […] of spiperone (S7395-250MG, Sigma-Aldrich). Equilibrium binding constant for ketanserin (Kd) was determined from saturation binding curves using the ‘one-site saturation binding analysis’ method in GraphPad PRISM software (Version 9.2.0).

[1] = target: T2, human serotonin transporter (SERT) (Homo sapiens, UniProt P31645); experiment: biochemical; type: binding; details: 1 nM imipramine; membranes containing human SERT; read-out: SERT, Ki
T2 construct: purchased PerkinElmer RBHSTM400UA
Experimental: A commonly applied SERT binding assay involves competition binding assays employing radiolabelled ligands. […] Radioactive binding assays were carried out using the Scintillation Proximity Assay (SPA). For saturation binding assay, mixtures of 9 μg of membrane containing human SERT was pre-coupled to 1 mg of SPA beads at room temperature in a tube rotator for 1 hour in binding buffer (50 mM Tris-HCl pH7.4, 120 mM NaCl, 5 mM KCl, 1 mM ascorbic acid, 10 μM pargyline HCl). […] After incubation, the samples are read on a MicroBeta 2 Microplate Counter. Non-specific binding was carried out in the presence of 200 μM of clomipramine hydrochloride (C7291-1G, Sigma). Equilibrium binding constant for imipramine (KD) was determined from saturation binding curve using one-site saturation binding analysis from GraphPad PRISM software (Version 9.2.0). All test compounds were dissolved to 100 mM in DMSO and dilutions were carried out in assay buffer. […] Ki values were calculated from the competition displacement data using the competitive binding analysis from GraphPad PRISM software. […] Vehicle (DMSO) without drug was used as a negative control.

C57BL/6 mice = experiment: Mouse Head Twitch Response (HTR) assay to assess hallucinogenic potential; type: in vivo; details: for mean HTR / HTR compared with the HTR response for 5-Br-DMT (one-way ANOVA, Dunnett): 3 mg/kg i.p.; for mean HTR: 0-15 min interval (preliminary screening); for HTR compared with the HTR response for 5-Br-DMT (one-way ANOVA, Dunnett): alpha 0.05; for HTR: 0-15 min (dose curve)
Experimental: All experiments were approved by the University of Calgary Animal Care and Use Committee in accordance with Canadian Council on Animal Care guidelines. C57BL/6-Elite mixed sex mice were obtained from Charles River (8 weeks old). Until the first experiment, mice were group-housed, then single-housed on a 12:12 h light/dark schedule (lights on at 07:00 hours) with ad libitum access to food and water. Before any behavioral screening, mice were handled and exposed to the testing chamber for at least 5 min each day for three successive days and habituated to the experimental room 1 h before testing. The testing chamber was cleaned with a 70% ethanol solution between experiments to eliminate odor from other mice. Drug compounds (100 mM in DMSO) were diluted in sterile excipient (10% EtOH/15% PEG400 in ddH2O) to 3 mg/kg (preliminary screening) or 0.5, 2, 4, 7, and 10 mg/kg (dose-curve analysis) and administered using intraperitoneal (i.p.) drug injections. […] HTR was analyzed during the 0-to-15-minute window following drug administration. […] Mean HTR between 10 and 5 signifies reduced hallucinogenic potential relative to positive controls.

5-HT1A receptor = target: T3, 5-HT1A receptor (Homo sapiens, UniProt P08908); experiment: 5-HT1A receptor radioligand competition assay (SPA, [3H]8-hydroxy-DPAT); type: binding; details: 0.5 nM hot 8-hydroxy-DPAT; membranes containing 5-HT1A
T3 construct: purchased Perkin Elmer 6110501400UA
T3 sequence (P08908 1-422): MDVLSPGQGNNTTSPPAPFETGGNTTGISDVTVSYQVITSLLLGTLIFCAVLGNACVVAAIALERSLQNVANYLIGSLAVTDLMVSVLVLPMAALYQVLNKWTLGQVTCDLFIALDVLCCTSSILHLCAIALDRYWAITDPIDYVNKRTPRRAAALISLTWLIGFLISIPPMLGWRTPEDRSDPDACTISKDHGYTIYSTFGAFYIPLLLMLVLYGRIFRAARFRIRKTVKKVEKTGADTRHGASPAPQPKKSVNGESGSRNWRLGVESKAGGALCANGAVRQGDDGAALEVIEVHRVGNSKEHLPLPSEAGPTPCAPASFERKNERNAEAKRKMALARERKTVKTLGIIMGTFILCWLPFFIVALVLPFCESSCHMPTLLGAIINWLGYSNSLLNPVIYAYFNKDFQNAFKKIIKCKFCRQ
Experimental: 5-HT1A receptor. […] After incubation, the samples were read on a MicroBeta 2 Microplate Counter (perkinelmer.com). Non-specific binding was carried out in the presence of 100 μM of metergoline (M3668-500MG, Sigma-Aldrich). Equilibrium binding constant for 8-hydroxy-DPAT (KD) was determined from a saturation binding curve using one-site saturation binding analysis from GraphPad PRISM software (Version 9.2.0). Test compound was dissolved to 100 mM in dimethylsulfoxide (DMSO), and dilutions were carried out in assay buffer. […] Ki values were calculated from the competition displacement data using the competitive binding analysis from GraphPad PRISM software. […] Conversely, blank preparations lacking any drug (simply termed ‘DMSO’ samples) were used as negative controls, in addition to those containing tryptophan which is not known to bind the 5-HT1A receptor.

T2 sequence (P31645 whole entry): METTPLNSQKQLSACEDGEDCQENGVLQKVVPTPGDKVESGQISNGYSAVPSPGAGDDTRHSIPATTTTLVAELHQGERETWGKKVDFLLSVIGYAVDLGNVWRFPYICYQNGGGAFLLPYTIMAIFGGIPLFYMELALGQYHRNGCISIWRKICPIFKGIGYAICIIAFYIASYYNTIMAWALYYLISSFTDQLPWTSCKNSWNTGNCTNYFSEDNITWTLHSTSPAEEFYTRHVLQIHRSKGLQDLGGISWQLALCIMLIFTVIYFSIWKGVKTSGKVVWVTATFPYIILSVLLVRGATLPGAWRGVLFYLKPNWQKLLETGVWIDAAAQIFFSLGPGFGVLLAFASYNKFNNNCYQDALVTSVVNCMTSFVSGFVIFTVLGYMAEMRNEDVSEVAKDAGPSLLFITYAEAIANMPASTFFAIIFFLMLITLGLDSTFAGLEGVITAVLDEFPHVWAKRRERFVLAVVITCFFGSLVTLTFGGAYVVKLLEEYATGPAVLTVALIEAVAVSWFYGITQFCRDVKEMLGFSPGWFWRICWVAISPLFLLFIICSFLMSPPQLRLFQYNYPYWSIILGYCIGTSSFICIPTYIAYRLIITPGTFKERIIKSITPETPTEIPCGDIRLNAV
T1 sequence (P28223 whole entry): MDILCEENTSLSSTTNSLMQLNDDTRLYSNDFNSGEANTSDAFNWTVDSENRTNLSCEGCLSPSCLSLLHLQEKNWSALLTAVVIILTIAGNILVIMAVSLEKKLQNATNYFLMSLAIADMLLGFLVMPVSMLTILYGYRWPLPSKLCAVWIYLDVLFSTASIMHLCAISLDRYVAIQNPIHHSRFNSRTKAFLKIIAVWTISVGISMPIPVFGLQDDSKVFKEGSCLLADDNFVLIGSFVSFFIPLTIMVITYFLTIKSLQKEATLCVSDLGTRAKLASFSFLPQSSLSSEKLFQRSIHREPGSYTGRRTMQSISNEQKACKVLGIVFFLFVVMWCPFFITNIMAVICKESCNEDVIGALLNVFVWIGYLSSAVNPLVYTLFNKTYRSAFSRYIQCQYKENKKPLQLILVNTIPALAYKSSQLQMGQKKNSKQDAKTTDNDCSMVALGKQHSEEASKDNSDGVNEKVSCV

SMILES | Ki (5-HT2A receptor) | Ki [1] [µM] | mean HTR (C57BL/6 mice) | HTR compared with the HTR response for 5-Br-DMT (one-way ANOVA, Dunnett) (C57BL/6 mice) | HTR (C57BL/6 mice; 7 mg/kg i.p.) | HTR (C57BL/6 mice; 10 mg/kg i.p. (maximum dose)) | Ki (5-HT1A receptor) [µM] | HTR over increasing dosage (C57BL/6 mice; 0.5-10 mg/kg i.p., 0-15 min)
CN(C)CCc1c[nH]c2cc(N3CCC3)ccc12 [Compound (XII)] | 23.7 µM | 1.68 | 6.25 | not statistically significantly higher | ~20 | ~12 | 20.8 | –
CN(C)CCc1c[nH]c2cc(F)cc(N3CCOCC3)c12 [Compound (XV)] | 0.72 µM | 9.13 | 5.0±0.82 | not statistically significantly higher | – | – | 1.83 | remains low
CC(C)N(C)CCc1c[nH]c2cc(N3CCOCC3)c(F)cc12 [Compound (XVII)] | 8.3 µM and 8.34 µM | – | 22.25 | – | – | ~40 | – | –
CN(C)CCc1c[nH]c2cc(N3CCCC3)cc(F)c12 [Compound (XVIII)] | 6.13 µM | 39.2 | 5.25 | not statistically significantly higher | – | > 20 | 18.1 | –
